Reference: publication PMC7211195 (Investigational New Drugs, 2019)
Like-named read-outs stand apart in the source and are kept apart here.

Test: Lapatinib pharmacokinetics and uptake in rat brain tissue (BT);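 for BT corr (BT homogenate corrected), single rat: brain concentration corrected for residual brain blood by the Fridén method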;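 for BT corr (BT homogenate), single rat: brain concentration corrected for residual brain blood by the Fridén method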
Type: in vivo, rats
Conditions: male, Wistar, rat; for AUC(0-inf) / AUC(0-t) / Cmax / Tmax / k el: brain tissue
Description: This study was conducted on rats, which are a promising model to predict P-gp-based drug-drug interactions at the human BBB [15]. The animals were allowed to acclimate for one week before the beginning of the experiments. Adult male Wistar-strain rats (weight 470–525 g) were used in the study. The animals were maintained under standard breeding conditions with a 12/12 h light-dark cycle (lights on at 6.00 a.m., lights off at 6.00 p.m.) at constant room temperature (23 ± 2 °C), relative humidity (55 ± 10%) and ad libitum access to food and water. The experimental protocol for this study was reviewed and approved by the Local Ethics Committee. To obtain consistent data, the study was based on the required minimum number of animals and observation time. […] Three rats were used at each time point (n = 3). In total, the research was conducted on 66 animals (n = 33 in the experimental group and n = 33 in the control group).
Elacridar was freshly dissolved in a vehicle at an initial concentration of 20 mg/mL. […] A volume of 80 μL of blood was collected from each rat by cutting off a piece of its tail. The blood samples were collected into heparinized test tubes at the following time points: […], and they were immediately centrifuged at 2880 g for 10 min at 4 °C. The anaesthetized rats (anaesthetized by intramuscular administration of 50 mg/kg ketamine and 10 mg/kg xylazine) were prepared for cisterna magna puncture. The hair over the puncture was removed and the skin was disinfected with alcohol. The animals were placed in a recumbent position with an elevated rear part of the body. The animals’ heads were slightly flexed and immobilized with the operator’s left hand. The space between the occiput rostrally and the atlas (C1) of the spinal column caudally was gently palpated with the left thumb. A 0.7 × 20 G needle with polyethylene tubing (Terumo Poland, Warsaw, Poland) was gently inserted at an approximate angle of 80–90° through the skin with the operator’s right hand into the midsagittal region. The moment that dura mater perforation was perceptible, a small amount of CSF was found in the needle tubing. To sample additional CSF, a 1 mL insulin syringe (Becton Dickinson, Warsaw, Poland) was used to collect 80–120 μL of CSF by very gentle aspiration. Only clear CSF was collected for further analysis. […] The animals’ brains were immediately dissected, washed in 0.9% NaCl and divided along the longitudinal axis. One of the brain hemispheres was again rinsed three times with 5 mL of 0.9% NaCl, weighed and homogenized with 0.9% NaCl (4 mL per 1 g of BT) in an Ultra-Turrax homogenizer (Witko, Łódź, Poland). The homogenate was then centrifuged at 4500 g for 10 min. All samples of the rat BP, CSF, and BT homogenate supernatant were stored at −80 °C until analysis.
The chromatographic analysis was conducted using a 1260 Infinity system (Agilent Technologies, Santa Clara, USA) equipped with a Kinetex® C18 column (50 × 4.6 mm, 2.6 μm, Phenomenex, Torrance, USA), which was maintained at 35 °C. The mobile phase consisted of 0.1% formic acid (v/v) in water with 5 mM ammonium formate (solvent A) and acetonitrile with 10% phase A (v/v, solvent B). The analyte and internal standard (IS, erlotinib) were eluted using a gradient run of 10 min as follows: 95% A at 0–2 min; 95%–5% A at 2–4 min; 5% A at 4–5 min; 5%–95% A at 5–6 min; 95% A at 6–10 min. The flow rate and injection volume were set at 0.7 mL/min and 10 μL, respectively. The needle was washed for 30 s in a mixture of acetonitrile, methanol, isopropanol, water, and formic acid (50:20:15:15:0.25, v/v/v/v/v).

[1] = brain tissue homogenate, oral, lapatinib 100 mg/kg + elacridar, read-out: BT corr (BT homogenate), S
[2] = brain tissue homogenate, oral, lapatinib 100 mg/kg + elacridar, read-out: BT corr (BT homogenate), single rat
[3] = brain tissue homogenate, po, 100 mg/kg, lapatinib p.o. 100 mg/kg alone, read-out: BT corr (BT homogenate corrected), S
[4] = brain tissue homogenate, po, 100 mg/kg, lapatinib p.o. 100 mg/kg alone, read-out: BT corr (BT homogenate corrected), single rat
[5] = brain tissue homogenate, po, 100 mg/kg, lapatinib p.o. 100 mg/kg alone, read-out: Clapatinib in BT, S (medium value)
[6] = brain tissue homogenate, po, 100 mg/kg, lapatinib p.o. 100 mg/kg alone, read-out: Clapatinib in BT, single rat
[7] = brain, oral, lapatinib 100 mg/kg + elacridar, read-out: BT corr (BT homogenate), single rat
[8] = brain, oral, lapatinib 100 mg/kg + elacridar, read-out: Clapatinib in BT, S
[9] = brain, oral, lapatinib 100 mg/kg + elacridar, read-out: Clapatinib in BT, single rat
[10] = brain, po, 100 mg/kg, lapatinib 100 mg/kg oral + 5 mg/kg elacridar (IE+L)
[11] = brain, po, 100 mg/kg, lapatinib 100 mg/kg oral alone (IIL)

concentration at 2 h [1]: 71.3 ng/mL
concentration at 3 h [1]: 198 ng/mL
concentration at 3 h [2]: 170 ng/mL
concentration at 4 h [1]: 85 ng/mL
concentration at 4 h [2]: 91.9 ng/mL
concentration at 6 h [1]: 85.8 ng/mL
concentration at 6 h [2]: 87.3 ng/mL
concentration at 8 h [1]: 85 ng/mL
concentration at 8 h [2]: 91.5 ng/mL
concentration at 12 h [1]: 54.4 ng/mL
concentration at 12 h [2]: 63.6 ng/mL
concentration at 24 h [1]: 44.7 ng/mL
concentration at 24 h [2]: 52.7 ng/mL
concentration at 0.25 h [3]: 27.9 ng/mL
concentration at 0.25 h [4]: 22.5 ng/mL
concentration at 0.25 h [5]: 34.3 ng/mL
concentration at 0.25 h [6]: 27.7 ng/mL
concentration at 0.5 h [3]: 31.5 ng/mL
concentration at 0.5 h [4]: 24 ng/mL
concentration at 0.5 h [5]: 44.9 ng/mL
concentration at 0.5 h [6]: 36.2 ng/mL
concentration at 1 h [3]: 55.5 ng/mL
concentration at 1 h [4]: 48.1 ng/mL
concentration at 1 h [5]: 76 ng/mL
concentration at 1 h [6]: 66.5 ng/mL
concentration at 2 h [3]: 41.4 ng/mL
concentration at 2 h [4]: 30.1 ng/mL
concentration at 2 h [5]: 63.7 ng/mL
concentration at 2 h [6]: 49.8 ng/mL
concentration at 3 h [3]: 111 ng/mL
concentration at 3 h [4]: 139 ng/mL
concentration at 3 h [5]: 134 ng/mL
concentration at 3 h [6]: 115 ng/mL
concentration at 4 h [3]: 115 ng/mL
concentration at 4 h [4]: 94.2 ng/mL
concentration at 4 h [5]: 147 ng/mL
concentration at 4 h [6]: 133 ng/mL
concentration at 6 h [3]: 81.9 ng/mL
concentration at 6 h [5]: 101 ng/mL
concentration at 6 h [6]: 131 ng/mL
concentration at 8 h [3]: 66.2 ng/mL
concentration at 8 h [4]: 87.5 ng/mL
concentration at 8 h [5]: 85.5 ng/mL
concentration at 8 h [6]: 108 ng/mL
concentration at 12 h [5]: 59.6 ng/mL
concentration at 0.25 h [7]: 30.7 ng/mL
concentration at 0.25 h [8]: 40.8 ng/mL
concentration at 0.25 h [9]: 37.6 ng/mL
concentration at 0.5 h [7]: 45.2 ng/mL
concentration at 0.5 h [8]: 58.8 ng/mL
concentration at 0.5 h [9]: 62 ng/mL
concentration at 1 h [8]: 98.6 ng/mL
concentration at 1 h [9]: 95.2 ng/mL
concentration at 2 h [8]: 102 ng/mL
concentration at 3 h [8]: 221 ng/mL
concentration at 3 h [9]: 198 ng/mL
concentration at 4 h [8]: 97.6 ng/mL
concentration at 4 h [9]: 107 ng/mL
concentration at 6 h [8]: 98.7 ng/mL
concentration at 6 h [9]: 100 ng/mL
concentration at 8 h [8]: 102 ng/mL
concentration at 8 h [9]: 98.5 ng/mL
concentration at 12 h [9]: 86.5 ng/mL
concentration at 24 h [8]: 56.9 ng/mL
concentration at 24 h [9]: 65.5 ng/mL
AUC(0-inf) [10]: 2520 ± 611 ng·h/mL
AUC(0-t) [10]: 1610 ± 131 ng·h/mL
Cmax [10]: 198 ± 39 ng/mL
Tmax [10]: 3 h
k el [10]: 1.39e-05 s⁻¹
AUC(0-inf) [11]: 1350 ± 712 ng·h/mL
AUC(0-t) [11]: 836 ± 21.2 ng·h/mL
Cmax [11]: 128 ± 16.4 ng/mL
Tmax [11]: 4.5 ± 2.12 h
k el [11]: 6.94e-05 s⁻¹
concentration at 12 h (brain, po, 100 mg/kg, lapatinib p.o. 100 mg/kg alone, read-out: BT corr (BT homogenate corrected), S): 44.5 ng/mL
SMILES: CS(=O)(=O)CCNCc1ccc(-c2ccc3ncnc(Nc4ccc(OCc5cccc(F)c5)c(Cl)c4)c3c2)o1 [lapatinib, N-{3-Chloro-4-[(3-fluorobenzyl)oxy]phenyl}-6-[5-({[2-(methylsulfonyl)ethyl]amino}methyl)-2-furyl]-4-quinazolinamine]
